Here are results for twelve compounds from patent US8906939B2, “3-cyano-4-(4-tetrahydropyran-phenyl)-pyridin-2-one derivatives” (Janssen Pharmaceuticals, Inc., priority 2007, dated 2014).

For one data set, the target named is T1, human mGluR2 receptor (Homo sapiens, UniProt Q14416).
T1 construct: expressed in transfected cells; host or cells: CHO cells (membrane preparation)
Kind of data set: [35S]GTPγS binding assay, mGluR2 positive allosteric modulation (GTPγS-PAM). Type of data set: biochemical. Particulars: membranes from CHO cells transfected with human mGluR2; in presence of glutamate at EC25 concentration; averages of duplicate values of 11-concentration response curves; read-out: GTPgS - hR2 PAM pEC50 (converted). From the text:
The compounds provided in the present invention are positive allosteric modulators of mGluR2. These compounds appear to potentiate glutamate responses by binding to an allosteric site other than the glutamate binding site. The response of mGluR2 to a concentration of glutamate is increased when compounds of formula (I) are present. Compounds of formula (I) are expected to have their effect substantially at mGluR2 by virtue of their ability to enhance the function of the receptor. The behaviour of positive allosteric modulators tested at mGluR2 using the [^35S]GTPγS binding assay method described below and which is suitable for the identification of such compounds, and more particularly the compounds according to formula (I), are shown in Table 3.
[^35S]GTPγS Binding Assay
The [^35S]GTPγS binding assay is a functional membrane-based assay used to study G-protein coupled receptor (GPCR) function whereby incorporation of a non-hydrolysable form of GTP, [^35S]GTPγS (guanosine 5′-triphosphate, labelled with […] ^35S), is measured. The G-protein […] subunit catalyzes the exchange of guanosine 5′-diphosphate (GDP) by guanosine triphosphate (GTP) and on activation of the GPCR by an agonist, [^35S]GTPγS, becomes incorporated and cannot be cleaved to continue the exchange cycle (Harper (1998) Current Protocols in Pharmacology 2.6.1-10, John Wiley & Sons, Inc.). […] Here we describe the use of the [^35S]GTPγS binding assay using membranes from cells transfected with the human mGluR2 receptor and adapted from Schaffhauser et al ((2003) Molecular Pharmacology 4:798-810) for the detection of the positive allosteric modulation (PAM) properties of the compounds of this invention.
CHO-cells were cultured to pre-confluence and stimulated with 5 mM butyrate for 24 hours, prior to washing in PBS, and then collection by scraping in homogenisation buffer (50 mM Tris-HCl buffer, pH 7.4, 4° C.). Cell lysates were homogenized briefly (15s) using an ultra-turrax homogenizer. The homogenate was centrifuged at 23 500×g for 10 minutes and the supernatant discarded. The pellet was resuspended in 5 mM Tris-HCl, pH 7.4 and centrifuged again (30 000×g, 20 min, 4° C.). The final pellet was resuspended in 50 mM HEPES, pH 7.4 and stored at −80° C. in appropriate aliquots before use. Protein concentration was determined by the Bradford method (Bio-Rad, USA) with bovine serum albumin as standard.
Measurement of mGluR2 positive allosteric modulatory activity of test compounds in membranes containing human mGluR2 was performed using frozen membranes that were thawed and briefly homogenised prior to pre-incubation in 96-well microplates (15 μg/assay well, 30 minutes, 30° C.) in assay buffer (50 mM HEPES pH 7.4, 100 mM NaCl, 3 mM MgCl2, 50 μM GDP, 10 μg/ml saponin,) with increasing concentrations of positive allosteric modulator (from 0.3 nM to 50 μM) and either a minimal pre-determined concentration of glutamate (PAM assay), or no added glutamate. For the PAM assay, membranes were pre-incubated with glutamate at EC25 concentration, i.e. a concentration that gives 25% of the maximal response glutamate, and is in accordance to published data (Pin et al. (1999) Eur. J. Pharmacol. 375:277-294). After addition of [^35S]GTPγS (0.1 nM, f.c.) to achieve a total reaction volume of 200 μl, microplates were shaken briefly and further incubated to allow [^35S]GTPγS incorporation on activation (30 minutes, 30° C.). The reaction was stopped by rapid vacuum filtration over glass-fibre filter plates (Unifilter 96-well GF/B filter plates, Perkin-Elmer, Downers Grove, USA) microplate using a 96-well plate cell harvester (Filtermate, Perkin-Elmer, USA), and then by washing three times with 300 μl of ice-cold wash buffer (Na2PO4.2H2O 10 mM, NaH2PO4.H2O 10 mM, pH=7.4). […]
A general note: GTPγS is a poorly hydrolysed GTP analogue; its binding reports G protein activation.

T1 sequence (Q14416 19-872): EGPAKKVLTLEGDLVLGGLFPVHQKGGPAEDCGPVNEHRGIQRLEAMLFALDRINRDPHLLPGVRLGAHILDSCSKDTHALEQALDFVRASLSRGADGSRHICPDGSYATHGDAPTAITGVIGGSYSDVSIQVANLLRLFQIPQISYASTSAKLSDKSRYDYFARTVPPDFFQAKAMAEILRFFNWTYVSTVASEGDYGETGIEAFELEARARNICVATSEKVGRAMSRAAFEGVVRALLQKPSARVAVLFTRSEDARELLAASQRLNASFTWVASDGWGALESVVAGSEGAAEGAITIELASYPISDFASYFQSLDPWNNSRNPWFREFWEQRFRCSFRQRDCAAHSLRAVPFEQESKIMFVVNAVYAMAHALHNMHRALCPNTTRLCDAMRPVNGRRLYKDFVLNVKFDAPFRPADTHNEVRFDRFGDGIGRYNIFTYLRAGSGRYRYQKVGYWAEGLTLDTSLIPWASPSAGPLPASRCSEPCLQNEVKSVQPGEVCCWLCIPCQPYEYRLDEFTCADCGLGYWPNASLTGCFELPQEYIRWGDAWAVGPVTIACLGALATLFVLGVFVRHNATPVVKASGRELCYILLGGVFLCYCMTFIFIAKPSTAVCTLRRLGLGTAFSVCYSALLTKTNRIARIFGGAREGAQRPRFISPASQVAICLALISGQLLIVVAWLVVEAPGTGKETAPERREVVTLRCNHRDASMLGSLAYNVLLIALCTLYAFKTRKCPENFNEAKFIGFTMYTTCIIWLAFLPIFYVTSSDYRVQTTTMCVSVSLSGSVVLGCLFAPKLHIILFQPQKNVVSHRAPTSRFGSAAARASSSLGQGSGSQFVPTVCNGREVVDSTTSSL

In the case of `N#Cc1c(-c2ccc(NC3CCOCC3)c(F)c2)ccn(CC2CC2)c1=O` [Compound 1, 1-Cyclopropylmethyl-4-[3-fluoro-4-(tetrahydro-pyran-4-ylamino)-phenyl]-2-oxo-1,2-dihydro-pyridine-3-carbonitrile], the melting point – broadly, the temperature of the solid-liquid transition – was 249.5 °C. Moreover, the EC50 at human mGluR2 receptor was ~1 µM. As to `N#Cc1c(-c2ccc(NC3CCOCC3)c(Cl)c2)ccn(CC2CC2)c1=O` [Compound 2, 1-Cyclopropylmethyl-4-[3-chloro-4-(tetrahydro-pyran-4-ylamino)-phenyl]-2-oxo-1,2-dihydro-pyridine-3-carbonitrile], at human mGluR2 receptor, the EC50 was 0.676 µM.

Consider `N#Cc1c(-c2ccc(NC3CCOCC3)c(C(F)(F)F)c2)ccn(CC2CC2)c1=O` [Compound 3, 1-Cyclopropylmethyl-2-oxo-4-[4-(tetrahydro-pyran-4-ylamino)-3-trifluoromethyl-phenyl]-1,2-dihydro-pyridine-3-carbonitrile], for which the EC50 at human mGluR2 receptor is 1.23 µM. For the compound `N#Cc1c(-c2ccc(OC3CCOCC3)c(Cl)c2)ccn(CCC2CC2)c1=O` [Compound 4, 4-[3-Chloro-4-(tetrahydro-pyran-4-yloxy)-phenyl]-1-(2-cyclopropyl-ethyl)-2-oxo-1,2-dihydro-pyridine-3-carbonitrile], on human mGluR2 receptor, the EC50 was 0.282 µM. As to `CC(C)CCn1ccc(-c2ccc(OC3CCOCC3)c(Cl)c2)c(C#N)c1=O` [Compound 5], the EC50 on human mGluR2 receptor is 0.162 µM.

For `N#Cc1c(-c2ccc(NC3CCOCC3)c(Cl)c2)ccn(CCC2CC2)c1=O` [Compound 6], the melting point was > 300 °C. Besides, the EC50 at human mGluR2 receptor was 0.219 µM.

On to `N#Cc1c(-c2ccc(NC3CCOCC3)c(C(F)(F)F)c2)ccn(CCC2CC2)c1=O` [Compound 7], for which, on human mGluR2 receptor, the EC50 was 0.437 µM. Take `CCCCn1ccc(-c2ccc(NC3CCOCC3)cc2)c(C#N)c1=O` [Compound 8]: the melting point was 195 °C. The EC50 on human mGluR2 receptor was 2.51 µM.

In turn, `CCCCn1ccc(-c2ccc(OC3CCOCC3)cc2F)c(C#N)c1=O` [Compound 9] gave a melting point of 136 °C. The EC50 at human mGluR2 receptor was 0.631 µM. Consider `CC(C)CCn1ccc(-c2ccc(NC3CCOCC3)cc2F)c(C#N)c1=O` [Compound 10], for which the EC50 at human mGluR2 receptor was 1.58 µM. For the compound `CC(C)CCn1ccc(-c2ccc(NC3CCOCC3)c(F)c2)c(C#N)c1=O` [Compound 11], the EC50 on human mGluR2 receptor is 0.398 µM.

Regarding `CC(C)CCn1ccc(-c2ccc(NC3CCOCC3)c(Cl)c2)c(C#N)c1=O` [Compound 12], the EC50 on human mGluR2 receptor was 0.316 µM.
